Laboratory results published in patent publication US6841661B2, “Glycopeptide antibacterial compounds, compositions containing same and methods of using same” (Princeton Univerisity, priority 1999, dated 2005).

Experiments:
[1] = tested on: E. faecalis CL 4877 (VanB); test: microbe, parasite or virus in culture; format: cell-based; design: CL4877 (in vitro testing): unit not given here; conditions: Tables 7 and 8; unit not given
In short: (§1)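 NCCLS M7-A4-based broth microdilution with twofold serial dilutions, incubated at 35° C; medium BHI for enterococci and VISA/MRSA, cation-adjusted Mueller-Hinton for E. coli. Inoculum about 1-5×10^6 CFU/ml (enterococci) or 3-7×10^5 CFU/ml (others); MIC is lowest concentration with no visible growth, read at 18-20 hr for E. coli, 22-24 hr otherwise.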

[2] = tested on: E. faecium CL 5053 (VanA); test: microbe, parasite or virus in culture; format: cell-based; design: CL5053 (in vitro testing): unit not given here; conditions: Tables 7 and 8; unit not given
In short: (§2)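 Twofold broth microdilution per modified NCCLS M7-A4, 35 °C. Enterococci and VISA/MRSA in BHI (VISA/MRSA precultured in TSB + 10% HS), E. coli in MH II. Inocula ~1-5×10^6 CFU/ml for enterococci, ~3-7×10^5 CFU/ml otherwise. MIC is the lowest concentration with no visible growth, read at 18-20 hr (E. coli) or 22-24 hr.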

[3] = tested on: E. faecium CL 4931 (VanA); test: microbe, parasite or virus in culture; format: cell-based; design: CL4931 (in vitro testing): unit not given here; conditions: Tables 7 and 8; unit not given
In short: as §2

[4] = tested on: CL 4931, CL 5053, CL 5242 and CL 4877; format: cell-based, E. faecium, E. faecalis; design: unit not given here; conditions: mean of CL4931, CL5053, CL5242, CL4877; unit not given
In short: as §1

[5] = tested on: E. faecium CL 5242 (VanA); test: microbe, parasite or virus in culture; format: cell-based; design: CL5242 (in vitro testing): unit not given here; conditions: Tables 7 and 8; unit not given
In short: as §2

SMILES | CL4877 (in vitro testing) [1] | CL5053 (in vitro testing) [2] | CL4931 (in vitro testing) [3] | Mean [4] | CL5242 (in vitro testing) [5]
CNC(CC(C)C)C(=O)NC1C(=O)NC(CC(N)=O)C(=O)NC2C(=O)NC3C(=O)NC(C(=O)NC(C(=O)O)c4cc(O)cc(O)c4-c4cc3ccc4O)C(O)c3ccc(c(Cl)c3)Oc3cc2cc(c3OC2OC(CN)C(O)C(O)C2OC2CC(C)(NCc3ccc(OCc4ccc(Cl)cc4Cl)cc3)C(O)C(C)O2)Oc2ccc(cc2Cl)C1O (centres unmarked) [Compound 173] | 2 | 8 | 8 | 4.75 | 1
CNC(CC(C)C)C(=O)NC1C(=O)NC(CC(N)=O)C(=O)NC2C(=O)NC3C(=O)NC(C(=O)NC(C(=O)O)c4cc(O)cc(O)c4-c4cc3ccc4O)C(O)c3ccc(c(Cl)c3)Oc3cc2cc(c3OC2OC(CN)C(O)C(O)C2OC2CC(C)(NCc3ccc(OCc4cc(Cl)ccc4Cl)cc3)C(O)C(C)O2)Oc2ccc(cc2Cl)C1O (centres unmarked) [Compound 174] | 16 | 16 | 16 | 14 | 8
CNC(CC(C)C)C(=O)NC1C(=O)NC(CC(N)=O)C(=O)NC2C(=O)NC3C(=O)NC(C(=O)NC(C(=O)O)c4cc(O)cc(O)c4-c4cc3ccc4O)C(O)c3ccc(c(Cl)c3)Oc3cc2cc(c3OC2OC(CN)C(O)C(O)C2OC2CC(C)(NCc3ccc(OCc4cc(Cl)cc(Cl)c4)cc3)C(O)C(C)O2)Oc2ccc(cc2Cl)C1O (centres unmarked) [Compound 175] | 2 | 4 | 4 | 3 | 2
CNC(CC(C)C)C(=O)NC1C(=O)NC(CC(N)=O)C(=O)NC2C(=O)NC3C(=O)NC(C(=O)NC(C(=O)O)c4cc(O)cc(O)c4-c4cc3ccc4O)C(O)c3ccc(c(Cl)c3)Oc3cc2cc(c3OC2OC(CN)C(O)C(O)C2OC2CC(C)(NCc3ccc(OCc4c(Cl)cccc4Cl)cc3)C(O)C(C)O2)Oc2ccc(cc2Cl)C1O (centres unmarked) [Compound 176] | >16 | 16 | 16 | 13 | 4
CNC(CC(C)C)C(=O)NC1C(=O)NC(CC(N)=O)C(=O)NC2C(=O)NC3C(=O)NC(C(=O)NC(C(=O)O)c4cc(O)cc(O)c4-c4cc3ccc4O)C(O)c3ccc(c(Cl)c3)Oc3cc2cc(c3OC2OC(CN)C(O)C(O)C2OC2CC(C)(NCc3ccc(OCc4ccc(C(=O)OC)cc4)cc3)C(O)C(C)O2)Oc2ccc(cc2Cl)C1O (centres unmarked) [Compound 177] | >16 | >16 | >16 | 13 | 4
CNC(CC(C)C)C(=O)NC1C(=O)NC(CC(N)=O)C(=O)NC2C(=O)NC3C(=O)NC(C(=O)NC(C(=O)O)c4cc(O)cc(O)c4-c4cc3ccc4O)C(O)c3ccc(c(Cl)c3)Oc3cc2cc(c3OC2OC(CN)C(O)C(O)C2OC2CC(C)(NCc3ccc(OCc4ccc([N+](=O)[O-])cc4)cc3)C(O)C(C)O2)Oc2ccc(cc2Cl)C1O (centres unmarked) [Compound 178] | >32 | >32 | 32 | 27 | 8
CNC(CC(C)C)C(=O)NC1C(=O)NC(CC(N)=O)C(=O)NC2C(=O)NC3C(=O)NC(C(=O)NC(C(=O)O)c4cc(O)cc(O)c4-c4cc3ccc4O)C(O)c3ccc(c(Cl)c3)Oc3cc2cc(c3OC2OC(CN)C(O)C(O)C2OC2CC(C)(NCc3ccc(OCc4ccc(C(F)(F)F)cc4)cc3)C(O)C(C)O2)Oc2ccc(cc2Cl)C1O (centres unmarked) [Compound 179] | 4 | 8 | 8 | 3.25 | 1
CNC(CC(C)C)C(=O)NC1C(=O)NC(CC(N)=O)C(=O)NC2C(=O)NC3C(=O)NC(C(=O)NC(C(=O)O)c4cc(O)cc(O)c4-c4cc3ccc4O)C(O)c3ccc(c(Cl)c3)Oc3cc2cc(c3OC2OC(CN)C(O)C(O)C2OC2CC(C)(NCc3ccc(OCc4ccccc4C(F)(F)F)cc3)C(O)C(C)O2)Oc2ccc(cc2Cl)C1O (centres unmarked) [Compound 180] | 16 | 16 | 16 | 12.5 | 2
CNC(CC(C)C)C(=O)NC1C(=O)NC(CC(N)=O)C(=O)NC2C(=O)NC3C(=O)NC(C(=O)NC(C(=O)O)c4cc(O)cc(O)c4-c4cc3ccc4O)C(O)c3ccc(c(Cl)c3)Oc3cc2cc(c3OC2OC(CN)C(O)C(O)C2OC2CC(C)(NCc3ccc(OCc4ccc(F)cc4Cl)cc3)C(O)C(C)O2)Oc2ccc(cc2Cl)C1O (centres unmarked) [Compound 181] | 32 | 32 | 16 | 21 | 4
CNC(CC(C)C)C(=O)NC1C(=O)NC(CC(N)=O)C(=O)NC2C(=O)NC3C(=O)NC(C(=O)NC(C(=O)O)c4cc(O)cc(O)c4-c4cc3ccc4O)C(O)c3ccc(c(Cl)c3)Oc3cc2cc(c3OC2OC(CN)C(O)C(O)C2OC2CC(C)(NCc3ccc(OCc4ccccc4Cl)cc3)C(O)C(C)O2)Oc2ccc(cc2Cl)C1O (centres unmarked) [Compound 182] | >16 | >16 | >16 | 13 | 4
CNC(CC(C)C)C(=O)NC1C(=O)NC(CC(N)=O)C(=O)NC2C(=O)NC3C(=O)NC(C(=O)NC(C(=O)O)c4cc(O)cc(O)c4-c4cc3ccc4O)C(O)c3ccc(c(Cl)c3)Oc3cc2cc(c3OC2OC(CN)C(O)C(O)C2OC2CC(C)(NCc3ccc(OCc4ccc(Cl)c(Cl)c4)cc3Cl)C(O)C(C)O2)Oc2ccc(cc2Cl)C1O (centres unmarked) [Compound 183] | 2 | 4 | 8 | 4 | 2
CNC(CC(C)C)C(=O)NC1C(=O)NC(CC(N)=O)C(=O)NC2C(=O)NC3C(=O)NC(C(=O)NC(C(=O)O)c4cc(O)cc(O)c4-c4cc3ccc4O)C(O)c3ccc(c(Cl)c3)Oc3cc2cc(c3OC2OC(CN)C(O)C(O)C2OC2CC(C)(NCc3ccc(OCc4ccc(Cl)c(Cl)c4)c(OC)c3)C(O)C(C)O2)Oc2ccc(cc2Cl)C1O (centres unmarked) [Compound 184] | 8 | 4 | 4 | 4.5 | 2
CNC(CC(C)C)C(=O)NC1C(=O)NC(CC(N)=O)C(=O)NC2C(=O)NC3C(=O)NC(C(=O)NC(C(=O)O)c4cc(O)cc(O)c4-c4cc3ccc4O)C(O)c3ccc(c(Cl)c3)Oc3cc2cc(c3OC2OC(CN)C(O)C(O)C2OC2CC(C)(NCc3ccc(OCc4ccc(Cl)c(Cl)c4)cc3OC)C(O)C(C)O2)Oc2ccc(cc2Cl)C1O (centres unmarked) [Compound 185] | 4 | 16 | 8 | 8 | 4
CNC(CC(C)C)C(=O)NC1C(=O)NC(CC(N)=O)C(=O)NC2C(=O)NC3C(=O)NC(C(=O)NC(C(=O)O)c4cc(O)cc(O)c4-c4cc3ccc4O)C(O)c3ccc(c(Cl)c3)Oc3cc2cc(c3OC2OC(CN)C(O)C(O)C2OC2CC(C)(NCc3ccc(Oc4ccc(Cl)c(Cl)c4)cc3)C(O)C(C)O2)Oc2ccc(cc2Cl)C1O (centres unmarked) [Compound 186] | 8 | 8 | 8 | 6.5 | 2
CNC(CC(C)C)C(=O)NC1C(=O)NC(CC(N)=O)C(=O)NC2C(=O)NC3C(=O)NC(C(=O)NC(C(=O)O)c4cc(O)cc(O)c4-c4cc3ccc4O)C(O)c3ccc(c(Cl)c3)Oc3cc2cc(c3OC2OC(CN)C(O)C(O)C2OC2CC(C)(NCc3ccc(C(=O)Oc4ccc(Cl)cc4)cc3)C(O)C(C)O2)Oc2ccc(cc2Cl)C1O (centres unmarked) [Compound 187] | 32 | 16 | 16 | 17 | 4
CNC(CC(C)C)C(=O)NC1C(=O)NC(CC(N)=O)C(=O)NC2C(=O)NC3C(=O)NC(C(=O)NC(C(=O)O)c4cc(O)cc(O)c4-c4cc3ccc4O)C(O)c3ccc(c(Cl)c3)Oc3cc2cc(c3OC2OC(CN)C(O)C(O)C2OC2CC(C)(NCc3ccc(C(=O)Oc4ccc(Cl)c(Cl)c4)cc3)C(O)C(C)O2)Oc2ccc(cc2Cl)C1O (centres unmarked) [Compound 188] | 16 | 16 | 8 | 11 | 4
